Reference: paper PMC9852173, “[^111In]In-CP04 as a novel cholecystokinin-2 receptor ligand with theranostic potential in patients with progressive or metastatic medullary thyroid cancer: final results of a GRAN-T-MTC Phase I clinical trial” (European Journal of Nuclear Medicine and Molecular Imaging, 2022)

Columns and labels:
[1] = in vivo
Procedure: On the WBS planar imaging at 1, 4, 24, and 48 h (including standard activity) and quantitative SPECT/CT imaging at 4 and 24 h, the regions of interest (ROI) were drawn over the kidneys and over the lesions when visible. The counts in the ROIs were quantified to activity by cross-calibration with the activity determined in the corresponding volumes of interest (VOIs) drawn on the quantitative SPECT/CT image at 24 h. Time-activity curves were determined by fitting exponential curves through the uptake data. Time integrated activity coefficients (TIAC) were calculated for ^111In and ^177Lu by integration of the TIACs multiplied with their physical decaty functions. The absorbed dose per unit activity in each organ was determined by multiplication with the ^111In and ^177Lu S-values according to the MIRD formalism. […] The effect on the kidney absorbed dose after co-administration of the nephroprotective agent Gelofusine was evaluated. All dosimetry calculations were performed with the Hermes-OLINDA v2.1 hybrid 2D dosimetry software.

MTC [2] = settings: meta-analysis; cited from earlier work
Source text: It is well accepted that the molecular imaging modalities outperform conventional imaging (US, CT, and MRI in the present study) in the setting of recurrent disease, in particular PET/CT imaging with [^18F]F-DOPA [19–21].

MTC [3] = assay: [18F]FDG PET/CT restaging prior to enrolment; format: in vivo, human; settings: CEA 80 to 2087 ng/mL
Source text: Sixteen patients with histologically proven and advanced MTC were enrolled in the study based on the specific inclusion and exclusion criteria. [^18F]FDG PET/CT, ceCT, or MRI imaging (initiated at Ct concentrations above 150 pg/mL or clinical suspicion of disease at a specific site) was positive in 12 patients; in four, short calcitonin doubling time (CtDT) with negative conventional imaging (CT of the neck/thorax, abdomen; [^18F]FDG PET/CT) was present.
It is well accepted that the molecular imaging modalities outperform conventional imaging (US, CT, and MRI in the present study) in the setting of recurrent disease, in particular PET/CT imaging with [^18F]F-DOPA [19–21]. […] With patient-based detection rate of over 80%, [^111In]In-CP04 slightly outperformed conventional and molecular imaging modalities (detection rate of 75%) in the present study. […] However, the patient population in our study was highly preselected and small, which likely affected the results; moreover, the reported detection rate in the mentioned meta-analysis was likely affected by the relatively low Ct concentrations (above 150 pg/mL in only 73% of patients). […]

[4] = design: species or system human; settings: in vivo
Procedure: The primary objective of the trial was the evaluation of the safety of the administration of [^111In]In-CP04 at low mass amount of 10 μg CP04 and at high mass amount of 50 μg CP04 radiolabelled with 200±10% MBq of ^111In. Therefore, the definition of the type, frequency, severity, timing, and relation to the studied radiopharmaceutical administration of Adverse Events assessed by CTCAE v4.0 was used as primary endpoint to define the safety and tolerability of [^111In]In-CP04.
Detailed physical examinations with vital sign assessment, 12-lead ECG, and laboratory testing were performed to investigate the safety of intravenous administration of [^111In]In-CP04. The overall safety profile of the tested CCK-2/gastrin receptor ligand as characterized by timing, type, frequency, severity of adverse events (AE), and laboratory abnormalities was based on Common Terminology Criteria for Adverse Events (CTCAE) version 4.0. Since this was a Phase I clinical trial, the project was assumed as having a high-risk potential for the patient, and therefore, special care was taken with the monitoring of the study. In total, eight control visits were carried out over 4 months of the follow-up with physical examination, laboratory testing, and ECG. Additionally, Ct and proCt concentrations were measured after each [^111In]In-CP04 injection at predefined time points (0, 2, 5, 10, 20 min).
(table shift speed 12 cm/min).

[5] = in vivo; remark: listed apart in the source
Procedure: The duration of [^111In]In-CP04 administration with the low and high mass amount was 5 min and 30 min, respectively. During the injection of the IMP, a dynamic scan of the kidneys and stomach was performed for 30 min (anterior and posterior acquisition). The imaging protocol included a mandatory whole-body scan (WBS) at 1 h, 4 h, 24 h, and 48 h p.i. (table shift speed 12 cm/min). A quantitative SPECT/CT scan of the abdomen was performed at 24 h p.i. as well as an additional non-quantitative SPECT/CT scan of the area where pathological lesions were detected during WBS, if the scan duration was tolerated by the patient. Gelofusine (B. Braun, Melsungen, Germany) was administered as an infusion of 1 mL/kg body weight over 10 min followed by a 3-h infusion of 0.02 mL/kg/min after the injection of the IMPD. Physiological parameters (heart rate, blood pressure, oxygen saturation) were repeatedly measured during and after the [^111In]In-CP04 infusion as per study protocol.
During the [^111In]In-CP04 administration blood samples for dosimetry and pharmacokinetic purposes were taken at the set time intervals according to the study protocol: biodistribution and dosimetry data were acquired based on serial planar and SPECT/CT images, and blood and urine collection at regular time intervals. Urine samples were collected up to 24 h after the tracer injection to determine the bladder wall absorbed dose. On the WBS planar imaging at 1, 4, 24, and 48 h (including standard activity) and quantitative SPECT/CT imaging at 4 and 24 h, the regions of interest (ROI) were drawn over the kidneys and over the lesions when visible. The counts in the ROIs were quantified to activity by cross-calibration with the activity determined in the corresponding volumes of interest (VOIs) drawn on the quantitative SPECT/CT image at 24 h. Time-activity curves were determined by fitting exponential curves through the uptake data. Time integrated activity coefficients (TIAC) were calculated for ^111In and ^177Lu by integration of the TIACs multiplied with their physical decaty functions. The absorbed dose per unit activity in each organ was determined by multiplication with the ^111In and ^177Lu S-values according to the MIRD formalism. The blood time-activity curve was used to estimate the absorbed dose to the bone marrow. The activity concentration in the bone marrow was considered to be equal to the blood activity concentration. The activity and volumes of the urine samples were used to determine the urinary clearance rate, and with the dynamic bladder model, the TIAC in the bladder and the absorbed dose to the bladder wall were determined. The effect on the kidney absorbed dose after co-administration of the nephroprotective agent Gelofusine was evaluated. […]

## CSCC[C@H](NC(=O)[C@H](Cc1c[nH]c2ccccc12)NC(=O)CNC(=O)[C@H](Cc1ccc(O)cc1)NC(=O)[C@H](C)NC(=O)[C@@H](CCC(=O)O)NC(=O)[C@@H](CCC(=O)O)NC(=O)[C@@H](CCC(=O)O)NC(=O)[C@@H](CCC(=O)O)NC(=O)[C@@H](CCC(=O)O)NC(=O)[C@@H](CCC(=O)O)NC(=O)CN1CCN(CC(=O)O)CCN(CC(=O)O)CCN(CC(=O)O)CC1)C(=O)N[C@@H](CC(=O)O)C(=O)N[C@@H](Cc1ccccc1)C(N)=O [CP04, DOTA-(DGlu)6-Ala-Tyr-Gly-Trp-Met-Asp-Phe-NH2]
[1]
  projected 177Lu absorbed dose to the kidneys: 0.12 Gy/GBq

## N[C@@H](Cc1cc(O)c(O)cc1[18F])C(=O)O [[^18F]F-DOPA]
MTC [2]
  pooled patient-based detection rate: 66%

## OC[C@H]1OC(O)[C@H]([18F])[C@@H](O)[C@@H]1O (stereo partly drawn) [[^18F]FDG]
MTC [3]
  PET/CT positivity in the present series: only positive in three patients

## CSCC[C@H](NC(=O)[C@H](Cc1c[nH]c2ccccc12)NC(=O)CNC(=O)[C@H](Cc1ccc(O)cc1)NC(=O)[C@H](C)NC(=O)[C@@H](CCC(=O)O)NC(=O)[C@@H](CCC(=O)O)NC(=O)[C@@H](CCC(=O)O)NC(=O)[C@@H](CCC(=O)O)NC(=O)[C@@H](CCC(=O)O)NC(=O)[C@@H](CCC(=O)O)NC(=O)CN1CCN(CC(=O)O)CCN(CC(=O)O)CCN(CC(=O)O)CC1)C(=O)N[C@@H](CC(=O)O)C(=O)N[C@@H](Cc1ccccc1)C(N)=O [[^111In]In-CP04, [^111In]In-DOTA-(DGlu)6-Ala-Tyr-Gly-Trp-Met-Asp-Phe-NH2, metal not drawn]
[4]
  ECG recordings: No significant changes
  laboratory test results during control visits: did not change significantly
  performance status (Karnofsky index): did not change
  transient tachycardia, duration: less than 5 minutes
  transient tachycardia, heart rate: up to 128 beats/min
[5]
  kidney absorbed dose: 0.044±0.019 mSv/MBq
  organs with highest dose: highest dose to urinary bladder, followed by the kidneys and stomach wall
  radiation dose for 200 MBq: about 7 mSv
  retention of activity in intestines, stomach and kidneys: < 1 % of IA
